Experiments:
[1] = test system: human monocytic cell line U937; assay: Human U937 cellular necroptosis assay (TNFalpha + z-VAD-FMK, Cell Titer-Glo viability); assay type: cell-based; settings: Homo sapiens, U-937, 22 h, U937 cells, 25 ng/mL human TNFalpha + 25 μM z-VAD-FMK, read-out: hU937 Avg IC50
In short: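 Cells resuspended in phenol red-free RPMI with 10% FBS, stimulated with 25 ng/mL human TNFalpha plus 25 μM z-VAD-FMK, then given serially diluted compound for 22 h at 37° C, 5% CO2. Viability by Cell Titer-Glo 2.0 luminescence; IC50 from four-parameter logistic fit, averaged across runs.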

[2] = molecular target: RIPK1 (Homo sapiens (Human), UniProt Q13546); assay: ADP-Glo kinase assay (RIPK1 activity, conversion of ATP to ADP); assay type: biochemical; settings: 5 nM RIPK1, 50 μM ATP, 6 h reaction; read-out: RIPK1 Enzyme Avg IC50
Chain of RIPK1 (Q13546 1-327): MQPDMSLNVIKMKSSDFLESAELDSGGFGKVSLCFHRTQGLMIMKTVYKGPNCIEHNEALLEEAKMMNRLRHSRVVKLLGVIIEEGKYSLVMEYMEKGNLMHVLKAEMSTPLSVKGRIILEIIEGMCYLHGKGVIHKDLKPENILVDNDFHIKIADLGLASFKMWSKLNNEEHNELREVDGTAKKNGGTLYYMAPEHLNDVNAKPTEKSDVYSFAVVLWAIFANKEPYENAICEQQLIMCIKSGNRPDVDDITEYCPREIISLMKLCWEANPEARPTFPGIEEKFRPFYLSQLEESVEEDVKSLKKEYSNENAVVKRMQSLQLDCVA
In short: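 ADP-Glo luminescence of ATP-to-ADP conversion by 5 nM RIPK1 with 50 μM ATP (final), 6 h reaction after 10 min compound preincubation at rt. Buffer was 50 mM HEPES pH 7.5, 30 mM MgCl2, 0.05% BSA, 0.02% CHAPS. IC50 from four-parameter logistic fit.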

Row | Compound | IC50 [2] | IC50 [1]
1 | N#Cc1ccc2c(cnn2CC23CC(C(=O)N4CCC4c4ccc(F)cc4)(C2)C3)c1 (stereo not shown) [Example 234, 1-((3-(2-(4-fluorophenyl)-azetidine-1-carbonyl)bicyclo-[1.1.1]pentan-1-yl)methyl)-1H-indazole-5-carbonitrile] | 211 nM | 1970 nM
2 | NC(=O)c1cnnn1CC12CC(C(=O)N3N=CCC3c3cc(F)cc(F)c3)(C1)C2 (stereo not shown) [Example 55, 1-((3-(5-(3,5-difluorophenyl)-4,5-dihydro-1H-pyrazole-1-carbonyl)-bicyclo[1.1.1]pentan-1-yl)methyl)-1H-1,2,3-triazole-5-carboxamide] | 896 nM | 8930 nM
3 | O=C(N1N=CCC1c1cc(F)cc(F)c1)C12CC(Cn3cc(-c4ccccn4)cn3)(C1)C2 (stereo not shown) [Example 111, (5-(3,5-difluorophenyl)-4,5-dihydro-1H-pyrazol-1-yl)(3-((4-(pyridin-2-yl)-1H-pyrazol-1-yl)methyl)-bicyclo[1.1.1]pentan-1-yl)methanone] | 43 nM | 249 nM
4 | O=C(N1N=CCC1c1cc(F)cc(F)c1)C12CC(COc3cc(F)cnc3F)(C1)C2 (stereo not shown) [Example 328, (5-(3,5-difluorophenyl)-4,5-dihydro-1H-pyrazol-1-yl)(3-(((2,5-difluoropyridin-3-yl)-oxy)methyl)bicyclo[1.1.1]-pentan-1-yl)methanone] | 116 nM | 409 nM
5 | N#Cc1cnc2cnn(CC34CC(C(=O)N5N=CCC5c5cc(F)cc(F)c5)(C3)C4)c2c1 (stereo not shown) [Example 218, 1-((3-(5-(3,5-difluorophenyl)-4,5-dihydro-1H-pyrazole-1-carbonyl)bicyclo[1.1.1]pentan-1-yl)methyl)-1H-pyrazolo[4,3-b]pyridine-6-carbonitrile] | 25 nM | 113 nM
6 | N#Cc1ccc2c(cnn2CC23CC(C(=O)N4CCC4c4cccc(F)c4)(C2)C3)c1 (stereo not shown) [Example 252, 1-((3-(2-(3-fluorophenyl)-azetidine-1-carbonyl)bicyclo-[1.1.1]pentan-1-yl)methyl)-1H-indazole-5-carbonitrile] | 43 nM | 436 nM
7 | N#Cc1cccc2nn(CC34CC(C(=O)N5N=CCC5c5cc(F)cc(F)c5)(C3)C4)cc12 (stereo not shown) [Example 60, 2-((3-(5-(3,5-difluorophenyl)-4,5-dihydro-1H-pyrazole-1-carbonyl)bicyclo[1.1.1]-pentan-1-yl)methyl)-2H-indazole-4-carbonitrile] | 44 nM | 178 nM
8 | Cn1cc(-c2cc(OCC34CC(C(=O)N5CC(F)CC5c5cccc(F)c5)(C3)C4)ncn2)cn1 (single isomer, unassigned) [Example 29, (4-Fluoro-2-(3-fluorophenyl)pyrrolidin-1-yl)(3-(((6-(1-methyl-1H-pyrazol-4-yl)pyrimidin-4-yl)oxy)methyl)bicyclo[1.1.1]pentan-1-yl)methanone] | 213 nM | 647 nM
9 | O=C(N1N=CCC1c1cc(F)cc(F)c1)C12CC(Cn3cc4ccncc4n3)(C1)C2 (stereo not shown) [Example 88, (3-((2H-pyrazolo[3,4-c]-pyridin-2-yl)methyl)bicyclo-[1.1.1]pentan-1-yl)(5-(3,5-difluorophenyl)-4,5-dihydro-1H-pyrazol-1-yl)methanone] | 24 nM | 94 nM
10 | Cc1ccc(C2CC=NN2C(=O)C23CC(Cn4ncc5cc(C#N)ccc54)(C2)C3)nc1 (stereo not shown) [Example 174, 1-((3-(5-(5-methylpyridin-2-yl)-4,5-dihydro-1H-pyrazole-1-carbonyl)bicyclo[1.1.1]-pentan-1-yl)methyl)-1H-indazole-5-carbonitrile] | 48 nM | 63 nM
11 | N#Cc1ccc2c(cnn2CC23CC(C(=O)NCc4cc(F)cc(F)c4)(C2)C3)c1 [Example 261, 3-((5-cyano-1H-indazol-1-yl)methyl)-N-(3,5-difluoro-benzyl)bicyclo[1.1.1]pentane-1-carboxamide] | 4520 nM | 9470 nM
12 | O=C(N1N=CCC1c1cc(F)cc(F)c1)C12CC(Cn3cnc4ccccc43)(C1)C2 (stereo not shown) [Example 23, (3-((1H-Benzo[d]imidazol-1-yl)methyl)bicyclo[1.1.1]pentan-1-yl)(5-(3,5-difluorophenyl)-4,5-dihydro-1H-pyrazol-1-yl)methanone] | 30 nM | 158 nM
13 | Cc1cnc(C2CC=NN2C(=O)C23CC(Cn4cc(C#N)cn4)(C2)C3)cn1 (stereo not shown) [Example 131, 1-((3-(5-(5-methylpyrazin-2-yl)-4,5-dihydro-1H-pyrazole-1-carbonyl)bicyclo[1.1.1]-pentan-1-yl)methyl)-1H-pyrazole-4-carbonitrile] | 375 nM | 1920 nM

The next compounds have a lower IC50 [2] than those just listed; values first:

Row | IC50 [2] | Compound | IC50 [1]
14 | 12 nM | O=C(N1N=CCC1c1cncc(F)c1)C12CC(Cn3ncc4c(F)cccc43)(C1)C2 (stereo not shown) [Example 14, (3-((4-Fluoro-1H-indazol-1-yl)methyl)bicyclo[1.1.1]pentan-1-yl)(5-(5-fluoropyridin-3-yl)-4,5-dihydro-1H-pyrazol-1-yl)methanone] | 24 nM
15 | 16 nM | O=C(N1CC(F)CC1c1cccc(F)c1)C12CC(Cn3ncc4c(F)cccc43)(C1)C2 (stereo not shown) [Example 83, (3-((4-fluoro-1H-indazol-1-yl)methyl)bicyclo[1.1.1]-pentan-1-yl)(4-fluoro-2-(3-fluorophenyl)pyrrolidin-1-yl)methanone] | 67 nM
16 | 11 nM | N#Cc1cccc(C2CC=NN2C(=O)C23CC(Cn4ncc5c(F)cccc54)(C2)C3)c1 (stereo not shown) [Example 82, 3-(1-(3-((4-fluoro-1H-indazol-1-yl)methyl)bicyclo-[1.1.1]pentane-1-carbonyl)-4,5-dihydro-1H-pyrazol-5-yl)benzonitrile] | 31 nM
17 | 18 nM | O=C(N1N=CCC1c1cc(F)cc(F)c1)C12CC(Cn3ncc4nccnc43)(C1)C2 (stereo not shown) [Example 135, (3-((1H-pyrazolo[3,4-b]-pyrazin-1-yl)methyl)-bicyclo[1.1.1]pentan-1-yl)(5-(3,5-difluorophenyl)-4,5-dihydro-1H-pyrazol-1-yl)methanone] | 53 nM
18 | 16 nM | N#Cc1cc(OCC23CC(C(=O)N4N=CCC4c4cc(F)cc(F)c4)(C2)C3)ncn1 (stereo not shown) [Example 9, 6-((3-(5-(3,5-Difluorophenyl)-4,5-dihydro-1H-pyrazole-1-carbonyl)bicyclo[1.1.1]pentan-1-yl)methoxy)pyrimidine-4-carbonitrile] | 62 nM
19 | 10 nM | N#Cc1ccc2c(cnn2CC23CC(C(=O)N4N=CCC4c4cc(F)cc(F)c4)(C2)C3)c1 (stereo not shown) [Example 64, 1-((3-(5-(3,5-difluorophenyl)-4,5-dihydro-1H-pyrazole-1-carbonyl)bicyclo[1.1.1]-pentan-1-yl)methyl)-1H-indazole-5-carbonitrile] | 7 nM
20 | 16 nM | Cc1cncc(C2CC=NN2C(=O)C23CC(Cn4ncc5cc(C#N)ccc54)(C2)C3)n1 (stereo not shown) [Example 50, 1-((3-(5-(6-methylpyrazin-2-yl)-4,5-dihydro-1H-pyrazole-1-carbonyl)bicyclo[1.1.1]pentan-1-yl)methyl)-1H-indazole-5-carbonitrile] | 36 nM

Reference: patent US20250214942A1, “INHIBITORS OF RECEPTOR INTERACTING PROTEIN KINASE I FOR THE TREATMENT OF DISEASE” (Board of Regents, The University of Texas System, priority 2019, published 2025)
